Data reported in ChEMBL document CHEMBL5550100, “Discovery of LHF418 as a new potent SOS1 PROTAC degrader” (Bioorg Med Chem, 2024).

Legend:
Type in all cases: cell-based
[1] = target: T1, Protein cereblon/Son of sevenless homolog 1 (Homo sapiens, UniProt Q07889+Q96SW2); assay: PROTAC activity at CRBN/SOS1 in human A549 cells assessed as protein degradation at 0.1 uM incubated for 24 hrs by immunoblot analysis relative to control
[2] = target: T1, Protein cereblon/Son of sevenless homolog 1; assay: PROTAC activity at CRBN/SOS1 in human A549 cells assessed as protein degradation at 10 uM incubated for 24 hrs by immunoblot analysis relative to control
[3] = target: T1, Protein cereblon/Son of sevenless homolog 1; assay: PROTAC activity at CRBN/SOS1 in human A549 cells assessed as protein degradation at 1 uM incubated for 24 hrs by immunoblot analysis relative to control

T1 sequence (Q07889 whole entry, looked up): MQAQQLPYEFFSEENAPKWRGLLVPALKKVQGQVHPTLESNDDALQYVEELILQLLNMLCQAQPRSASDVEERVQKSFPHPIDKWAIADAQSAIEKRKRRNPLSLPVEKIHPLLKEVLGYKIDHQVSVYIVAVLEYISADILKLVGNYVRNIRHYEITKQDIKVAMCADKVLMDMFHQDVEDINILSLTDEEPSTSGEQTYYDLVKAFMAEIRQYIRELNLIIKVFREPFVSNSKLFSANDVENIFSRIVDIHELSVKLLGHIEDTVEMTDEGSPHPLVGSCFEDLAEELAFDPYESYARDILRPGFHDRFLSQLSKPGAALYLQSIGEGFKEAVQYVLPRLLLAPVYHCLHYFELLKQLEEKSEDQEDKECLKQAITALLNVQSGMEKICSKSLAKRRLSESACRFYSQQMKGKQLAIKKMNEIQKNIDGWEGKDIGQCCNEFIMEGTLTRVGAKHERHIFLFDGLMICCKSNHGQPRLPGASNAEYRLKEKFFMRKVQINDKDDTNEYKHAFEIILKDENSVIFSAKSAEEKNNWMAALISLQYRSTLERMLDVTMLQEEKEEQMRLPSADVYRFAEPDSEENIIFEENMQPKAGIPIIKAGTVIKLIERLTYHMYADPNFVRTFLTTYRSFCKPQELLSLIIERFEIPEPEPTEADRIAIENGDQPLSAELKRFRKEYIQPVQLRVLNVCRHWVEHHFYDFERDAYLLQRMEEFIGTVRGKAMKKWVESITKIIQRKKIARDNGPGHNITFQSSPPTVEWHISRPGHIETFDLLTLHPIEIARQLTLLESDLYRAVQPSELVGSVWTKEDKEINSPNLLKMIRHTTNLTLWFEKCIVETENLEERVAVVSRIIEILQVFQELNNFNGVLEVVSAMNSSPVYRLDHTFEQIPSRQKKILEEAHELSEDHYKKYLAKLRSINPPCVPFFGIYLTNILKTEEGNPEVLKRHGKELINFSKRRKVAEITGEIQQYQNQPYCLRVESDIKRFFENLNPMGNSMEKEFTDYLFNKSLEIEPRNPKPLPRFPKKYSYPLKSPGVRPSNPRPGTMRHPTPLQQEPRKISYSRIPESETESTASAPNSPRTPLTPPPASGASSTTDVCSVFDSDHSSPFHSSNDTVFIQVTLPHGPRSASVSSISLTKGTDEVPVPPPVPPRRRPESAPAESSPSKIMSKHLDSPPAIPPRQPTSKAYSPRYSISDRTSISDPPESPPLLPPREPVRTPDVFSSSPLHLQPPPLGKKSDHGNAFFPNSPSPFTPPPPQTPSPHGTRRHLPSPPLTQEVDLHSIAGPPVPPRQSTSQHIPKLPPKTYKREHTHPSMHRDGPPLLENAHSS
T1 sequence (Q96SW2 whole entry, looked up): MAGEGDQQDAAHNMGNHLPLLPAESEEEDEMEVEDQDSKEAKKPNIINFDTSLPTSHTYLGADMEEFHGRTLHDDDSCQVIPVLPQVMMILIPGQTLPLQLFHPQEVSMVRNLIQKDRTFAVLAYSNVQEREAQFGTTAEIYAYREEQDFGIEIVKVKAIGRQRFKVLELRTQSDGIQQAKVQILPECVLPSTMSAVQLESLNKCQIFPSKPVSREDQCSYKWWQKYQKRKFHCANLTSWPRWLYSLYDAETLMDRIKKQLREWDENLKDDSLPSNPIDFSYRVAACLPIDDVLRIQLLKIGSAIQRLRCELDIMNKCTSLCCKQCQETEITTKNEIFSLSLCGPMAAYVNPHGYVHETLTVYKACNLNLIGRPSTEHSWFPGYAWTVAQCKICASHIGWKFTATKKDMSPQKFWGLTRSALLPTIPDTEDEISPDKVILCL

Activity [1] | Activity [2] | Activity [3] | SMILES
0% | 0% | 0% | COc1cc2nc(C)nc(N[C@H](C)c3cc(N)cc(C(F)(F)F)c3)c2cc1O[C@H]1CCN(C(=O)CCCCCCCCCNc2ccc3c(c2)C(=O)N(C2CCC(=O)NC2=O)C3=O)C1 (some centres not stated)
5.6% | 10.2% | 1.6% | COc1cc2nc(C)nc(N[C@H](C)c3cc(N)cc(C(F)(F)F)c3)c2cc1O[C@H]1CCN(C(=O)CCCCC(=O)Nc2cccc3c2C(=O)N(C2CCC(=O)NC2=O)C3)C1 (some centres not stated)
4% | 9.4% | 8.9% | COc1cc2nc(C)nc(N[C@H](C)c3cc(N)cc(C(F)(F)F)c3)c2cc1O[C@H]1CCN(C(=O)CCCNc2ccc3c(c2)C(=O)N(C2CCC(=O)NC2=O)C3=O)C1 (some centres not stated)
1.8% | 0% | 0% | COc1cc2nc(C)nc(N[C@H](C)c3cc(N)cc(C(F)(F)F)c3)c2cc1O[C@H]1CCN(C(=O)CCCCC(=O)Nc2cccc3c2CN(C2CCC(=O)NC2=O)C3=O)C1 (some centres not stated)
6.4% | 18.1% | 6.7% | COc1cc2nc(C)nc(N[C@H](C)c3cc(N)cc(C(F)(F)F)c3)c2cc1O[C@H]1CCN(C(=O)CCCCCCCCC(=O)Nc2cccc3c2C(=O)N(C2CCC(=O)NC2=O)C3)C1 (some centres not stated)
14.3% | 6.7% | 5.7% | COc1cc2nc(C)nc(N[C@H](C)c3cc(N)cc(C(F)(F)F)c3)c2cc1O[C@H]1CCN(C(=O)CCCCCNc2cccc3c2C(=O)N(C2CCC(=O)NC2=O)C3=O)C1 (some centres not stated)
6.6% | 42.9% | 20.9% | COc1cc2nc(C)nc(N[C@H](C)c3cc(N)cc(C(F)(F)F)c3)c2cc1O[C@H]1CCN(C(=O)CCCCCCCNc2ccc3c(c2)C(=O)N(C2CCC(=O)NC2=O)C3=O)C1 (some centres not stated)
0% | 2.4% | 0% | COc1cc2nc(C)nc(N[C@H](C)c3cc(N)cc(C(F)(F)F)c3)c2cc1O[C@H]1CCN(C(=O)CCC(=O)Nc2ccc3c(c2)CN(C2CCC(=O)NC2=O)C3=O)C1 (some centres not stated)
0% | 9.3% | 4% | COc1cc2nc(C)nc(N[C@H](C)c3cc(N)cc(C(F)(F)F)c3)c2cc1O[C@H]1CCN(C(=O)CC(=O)Nc2ccc3c(c2)CN(C2CCC(=O)NC2=O)C3=O)C1 (some centres not stated)
5.6% | 19.3% | 11.9% | COc1cc2nc(C)nc(N[C@H](C)c3cc(N)cc(C(F)(F)F)c3)c2cc1O[C@H]1CCN(C(=O)CCCCCNc2ccc3c(c2)C(=O)N(C2CCC(=O)NC2=O)C3=O)C1 (some centres not stated)
0% | 9% | 9.5% | COc1cc2nc(C)nc(N[C@H](C)c3cc(N)cc(C(F)(F)F)c3)c2cc1O[C@H]1CCN(C(=O)CCCCCCCCC(=O)Nc2ccc3c(c2)CN(C2CCC(=O)NC2=O)C3=O)C1 (some centres not stated)
15.3% | 6.1% | 13% | COc1cc2nc(C)nc(N[C@H](C)c3cc(N)cc(C(F)(F)F)c3)c2cc1O[C@H]1CCN(C(=O)CCCCCCCNc2cccc3c2C(=O)N(C2CCC(=O)NC2=O)C3=O)C1 (some centres not stated)
1% | 7% | 4.7% | COc1cc2nc(C)nc(N[C@H](C)c3cc(N)cc(C(F)(F)F)c3)c2cc1O[C@H]1CCN(C(=O)CC(=O)Nc2cccc3c2CN(C2CCC(=O)NC2=O)C3=O)C1 (some centres not stated)
2.7% | 37.6% | 12.2% | COc1cc2nc(C)nc(N[C@H](C)c3cc(N)cc(C(F)(F)F)c3)c2cc1O[C@H]1CCN(C(=O)CCCCC(=O)Nc2ccc3c(c2)C(=O)N(C2CCC(=O)NC2=O)C3)C1 (some centres not stated)
0% | 9.2% | 11.6% | COc1cc2nc(C)nc(N[C@H](C)c3cc(N)cc(C(F)(F)F)c3)c2cc1O[C@H]1CCN(C(=O)CC(=O)Nc2cccc3c2C(=O)N(C2CCC(=O)NC2=O)C3)C1 (some centres not stated)
0% | 0.6% | 2.5% | COc1cc2nc(C)nc(N[C@H](C)c3cc(N)cc(C(F)(F)F)c3)c2cc1O[C@H]1CCN(C(=O)CCCCCCCCC(=O)Nc2ccc3c(c2)C(=O)N(C2CCC(=O)NC2=O)C3)C1 (some centres not stated)
3.9% | 4.1% | 57.7% | COc1cc2nc(C)nc(N[C@H](C)c3cc(N)cc(C(F)(F)F)c3)c2cc1O[C@H]1CCN(C(=O)CCCCCCC(=O)Nc2ccc3c(c2)CN(C2CCC(=O)NC2=O)C3=O)C1 (some centres not stated)
2.6% | 3.7% | 0% | COc1cc2nc(C)nc(N[C@H](C)c3cc(N)cc(C(F)(F)F)c3)c2cc1O[C@H]1CCN(C(=O)CCCCCCC(=O)Nc2cccc3c2C(=O)N(C2CCC(=O)NC2=O)C3)C1 (some centres not stated)
7.9% | 8.2% | 37.6% | COc1cc2nc(C)nc(N[C@H](C)c3cc(N)cc(C(F)(F)F)c3)c2cc1O[C@H]1CCN(C(=O)CCCCCCC(=O)Nc2ccc3c(c2)C(=O)N(C2CCC(=O)NC2=O)C3)C1 (some centres not stated)
0.9% | 8% | 0% | COc1cc2nc(C)nc(N[C@H](C)c3cc(N)cc(C(F)(F)F)c3)c2cc1O[C@H]1CCN(C(=O)CCCNc2cccc3c2C(=O)N(C2CCC(=O)NC2=O)C3=O)C1 (some centres not stated)
7.1% | 15.6% | 10% | COc1cc2nc(C)nc(N[C@H](C)c3cc(N)cc(C(F)(F)F)c3)c2cc1O[C@H]1CCN(C(=O)CCCCC(=O)Nc2ccc3c(c2)CN(C2CCC(=O)NC2=O)C3=O)C1 (some centres not stated)
13.7% | 35.6% | 20% | COc1cc2nc(C)nc(N[C@H](C)c3cc(N)cc(C(F)(F)F)c3)c2cc1O[C@H]1CCN(C(=O)CCC(=O)Nc2ccc3c(c2)C(=O)N(C2CCC(=O)NC2=O)C3)C1 (some centres not stated)
0% | 1.5% | 0% | COc1cc2nc(C)nc(N[C@H](C)c3cc(N)cc(C(F)(F)F)c3)c2cc1O[C@H]1CCN(C(=O)CNc2ccc3c(c2)C(=O)N(C2CCC(=O)NC2=O)C3=O)C1 (some centres not stated)
0% | 0% | 9.6% | COc1cc2nc(C)nc(N[C@H](C)c3cc(N)cc(C(F)(F)F)c3)c2cc1O[C@H]1CCN(C(=O)CCC(=O)Nc2cccc3c2C(=O)N(C2CCC(=O)NC2=O)C3)C1 (some centres not stated)
11.4% | 26.1% | 39.1% | COc1cc2nc(C)nc(N[C@H](C)c3cc(N)cc(C(F)(F)F)c3)c2cc1O[C@H]1CCN(C(=O)CCCCCCCCC(=O)Nc2cccc3c2CN(C2CCC(=O)NC2=O)C3=O)C1 (some centres not stated)
0% | 0% | 0% | COc1cc2nc(C)nc(N[C@H](C)c3cc(N)cc(C(F)(F)F)c3)c2cc1O[C@H]1CCN(C(=O)CCCCCCCCCCC(=O)Nc2cccc3c2CN(C2CCC(=O)NC2=O)C3=O)C1 (some centres not stated)
2.1% | 65.4% | 31.9% | COc1cc2nc(C)nc(N[C@H](C)c3cc(N)cc(C(F)(F)F)c3)c2cc1O[C@H]1CCN(C(=O)CCCCCCC(=O)Nc2cccc3c2CN(C2CCC(=O)NC2=O)C3=O)C1 (some centres not stated)
8.5% | 7.5% | 6.1% | COc1cc2nc(C)nc(N[C@H](C)c3cc(N)cc(C(F)(F)F)c3)c2cc1O[C@H]1CCN(C(=O)CC(=O)Nc2ccc3c(c2)C(=O)N(C2CCC(=O)NC2=O)C3)C1 (some centres not stated)
1.7% | 0% | 2.6% | COc1cc2nc(C)nc(N[C@H](C)c3cc(N)cc(C(F)(F)F)c3)c2cc1O[C@H]1CCN(C(=O)CNc2cccc3c2C(=O)N(C2CCC(=O)NC2=O)C3=O)C1 (some centres not stated)
